Measured values reported in PMC9298194, “Clinical Pharmacokinetics of Daprodustat: Results of an Absorption, Distribution, and Excretion Study With Intravenous Microtracer and Concomitant Oral Doses for Bioavailability Determination” (Clinical Pharmacology in Drug Development, 2021).
Where “and” joins values, the source holds several entries; their conditions need not be identical. Identical values can stand only once.

Experiment: Metabolite load, hepatic extraction, fraction escaping gut metabolism and fraction absorbed analyses
Type: in vivo, human
Experimental: To assess the extent of metabolism and absorption of daprodustat, the plasma PK parameters: metabolite load, fraction escaping metabolism by the gut wall (Fg), hepatic extraction (Eh), and fraction absorbed (Fabs) were calculated on the basis of equations found in Harrell et al.[18] All parameters for analysis have been conducted on plasma results (assuming a blood to plasma ratio of 1) but when appropriate, the actual human blood:plasma ratio of 1.23 (internal GSK reports) of daprodustat has been applied to specific parameters to aid interpretation. (1) HepaticExtraction:Eh(blood)=CLbtotal−CLbrenal/QH (2) Fractionescapinglivermetabolism:Fh=1−Eh(blood) (3) MetaboliteLoadTRA=totalradioactivity:MLroute=AUCTRAroute−AUCroute/AUCTRAroute (4) Fractionescapinggut:Fg=1−MLoral−MLIV/Fh (5) Fractionabsorbed:Fabs=Foral/Fh×Fg

O=C(O)CNC(=O)C1C(=O)N(C2CCCCC2)C(=O)N(C2CCCCC2)C1=O [Daprodustat]
Eh (hepatic extraction) ([14C] IV infusion, fraction, adjusted with blood:plasma ratio of 1.23, mean (SD), n = 3): 0.181 (0.050) | MLIV (plasma metabolite load) ([14C] IV infusion, mean (SD), n = 3): 0.623 (0.080) | MLIV (plasma metabolite load) ([14C] IV infusion, mean (SD), n = 3, listed as daprodustat): ≈ 0.623 (0.080) | Fabs (fraction absorbed) ([14C] oral solution, fraction, reduced to Foral/Fh, blood:plasma ratio 1.23, mean (SD), n = 3): 0.811 (0.134) | Fg (fraction escaping metabolism by the gut wall) ([14C] oral solution, mean (SD), n = 3): > 1 | MLPO (plasma metabolite load) ([14C] oral solution, mean (SD), n = 6): ~0.584 (0.060) | daprodustat absorbed across the gastrointestinal tract (Fabs) (following oral solution administration): ≈ 80% and 81% and ≈ 81% | hepatic extraction (from blood CL, human liver blood flow of 87 L/h): ≈ 18% and 18%
